{"source": "ChEMBL document CHEMBL5518218", "about": "“Discovery of Novel PD-L1 Small-Molecular Inhibitors with Potent In Vivo Anti-tumor Immune Activity” (J Med Chem, 2024)", "key": {"[1]": {"system": "CT26", "test": "Antitumor activity against mouse CT26 cells implanted in BALB/c mouse assessed as reduction in Treg lymphocyte at 25 mg/kg, ip measured for 20 days", "format": "functional, organism-based", "conditions": "time 20.0 day"}, "[2]": {"test": "Prodrug conversion in C57BL/6 mouse assessed as AUC (0 to t) of (2-(benzo[c][1,2,5]oxadiazol-5-ylmethoxy)-5-chloro-4-((2-fluoro-3'-(3-(4-hydroxypiperidin-1-yl)propoxy)-[1,1'-biphenyl]-3-yl)methoxy)benzyl)-D-serine at 2 mg/kg, iv measured upto 24 hrs by LC-MS/MS analysis", "format": "ADME, organism-based", "conditions": "in vivo"}, "[3]": {"system": "CT26", "test": "Antitumor activity against mouse CT26 cells implanted in BALB/c mouse assessed as tumor growth inhibition at 10 mg/kg, ip measured at 8 to 14 days", "format": "functional", "conditions": "time 8-14 day, read-out: TGI"}, "[4]": {"test": "Prodrug conversion in Sprague-Dawley rat assessed as Cmax of (2-(benzo[c][1,2,5]oxadiazol-5-ylmethoxy)-5-chloro-4-((2-fluoro-3'-(3-(4-hydroxypiperidin-1-yl)propoxy)-[1,1'-biphenyl]-3-yl)methoxy)benzyl)-D-serine at 45 mg/kg, po measured upto 24 hrs by LC-MS/MS analysis", "format": "ADME, organism-based", "conditions": "in vivo"}, "[5]": {"target": "Programmed cell death protein 1/Programmed cell death 1 ligand 1 (Homo sapiens, UniProt Q9NZQ7)", "sequence (Q15116 whole entry)": "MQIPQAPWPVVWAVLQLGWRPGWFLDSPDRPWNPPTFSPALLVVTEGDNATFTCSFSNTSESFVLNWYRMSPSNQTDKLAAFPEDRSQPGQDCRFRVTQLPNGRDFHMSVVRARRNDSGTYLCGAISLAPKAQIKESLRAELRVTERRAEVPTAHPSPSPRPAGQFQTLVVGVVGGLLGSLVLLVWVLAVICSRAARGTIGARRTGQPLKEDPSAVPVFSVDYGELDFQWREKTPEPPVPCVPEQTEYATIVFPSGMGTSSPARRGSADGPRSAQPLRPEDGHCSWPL", "sequence (Q9NZQ7 whole entry)": "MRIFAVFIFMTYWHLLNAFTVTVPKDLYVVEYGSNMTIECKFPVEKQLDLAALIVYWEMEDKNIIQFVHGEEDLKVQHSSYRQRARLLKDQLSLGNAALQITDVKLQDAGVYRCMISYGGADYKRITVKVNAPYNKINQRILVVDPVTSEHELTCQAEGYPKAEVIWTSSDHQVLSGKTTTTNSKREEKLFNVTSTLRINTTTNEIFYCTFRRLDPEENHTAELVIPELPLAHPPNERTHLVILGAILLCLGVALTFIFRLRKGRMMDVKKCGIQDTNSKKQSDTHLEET", "test": "Inhibition of PD-1/PD-L1 interaction (unknown origin) incubated for 15 min by HTRF assay", "format": "protein-complex assay"}, "[6]": {"test": "Prodrug conversion in C57BL/6 mouse assessed as AUC (0 to t) of (2-(benzo[c][1,2,5]oxadiazol-5-ylmethoxy)-5-chloro-4-((2-fluoro-3'-(3-(4-hydroxypiperidin-1-yl)propoxy)-[1,1'-biphenyl]-3-yl)methoxy)benzyl)-D-serine at 10 mg/kg, po measured upto 24 hrs by LC-MS/MS analysis", "format": "ADME, organism-based", "conditions": "in vivo"}, "[7]": {"test": "Prodrug conversion in Sprague-Dawley rat assessed as Tmax of (2-(benzo[c][1,2,5]oxadiazol-5-ylmethoxy)-5-chloro-4-((2-fluoro-3'-(3-(4-hydroxypiperidin-1-yl)propoxy)-[1,1'-biphenyl]-3-yl)methoxy)benzyl)-D-serine at 45 mg/kg, po measured upto 24 hrs by LC-MS/MS analysis", "format": "ADME, organism-based", "conditions": "in vivo"}, "[8]": {"system": "MC-38", "test": "Antitumor activity against mouse MC38 cells implanted in po dosed C57BL/6J mouse assessed as reduction in tumor growth", "format": "functional, organism-based", "conditions": "dose 5-25 mg/kg"}, "[9]": {"test": "Prodrug conversion in Sprague-Dawley rat assessed as oral bioavailability of (2-(benzo[c][1,2,5]oxadiazol-5-ylmethoxy)-5-chloro-4-((2-fluoro-3'-(3-(4-hydroxypiperidin-1-yl)propoxy)-[1,1'-biphenyl]-3-yl)methoxy)benzyl)-D-serine at 45 mg/kg measured upto 24 hrs by LC-MS/MS analysis", "format": "ADME, organism-based", "conditions": "in vivo"}, "[10]": {"test": "Prodrug conversion in C57BL/6 mouse assessed as Tmax of (2-(benzo[c][1,2,5]oxadiazol-5-ylmethoxy)-5-chloro-4-((2-fluoro-3'-(3-(4-hydroxypiperidin-1-yl)propoxy)-[1,1'-biphenyl]-3-yl)methoxy)benzyl)-D-serine at 10 mg/kg, po measured upto 24 hrs by LC-MS/MS analysis", "format": "ADME, organism-based", "conditions": "in vivo"}}, "note": "Activity calls are given as the source filed them. The calls are words filed in the database; no cut-off is given here."}
{"compound": "CCOC(=O)[C@@H](CO)NCc1cc(Cl)c(OCc2cccc(-c3cccc(OCCCN4CCC(O)CC4)c3)c2F)cc1OCc1ccc2nonc2c1.Cl.Cl", "values": [{"measurement": "Activity", "setting": "[1]", "value": "Active"}, {"measurement": "AUCt", "setting": "[2]", "value": 531.6, "unit": "ng·h/mL"}, {"measurement": "inhibition in vivo at 10 mg/kg", "setting": "[3]", "value": 21.9, "unit": "%"}, {"measurement": "Cmax", "setting": "[4]", "value": 49.8, "unit": "ng/mL"}, {"measurement": "IC50", "setting": "[5]", "value": 786, "unit": "nM"}, {"measurement": "AUCt", "setting": "[6]", "value": 315.6, "unit": "ng·h/mL"}, {"measurement": "Tmax", "setting": "[7]", "value": 4, "unit": "h"}, {"measurement": "Activity", "setting": "[8]", "value": "Dose-Dependent Effect"}, {"measurement": "F", "setting": "[9]", "value": 3.4, "unit": "%"}, {"measurement": "Tmax", "setting": "[10]", "value": 0.7, "unit": "h"}]}
